This is an account of results in ChEMBL document CHEMBL1201862, “PubChem BioAssay data set” (2004).

Structures are written as SMILES.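 Protocol summary: plate cells (96-well), add compound at 5 concentrations, incubate 48 h, interpolate endpoints linearly. Abbreviation: GI50, concentration required for 50% inhibition of growth.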 Calls of active or inactive are those of the source. Rule as the data show it: active = GI50 up to about 1.1 µM and inactive = higher.

Test systems include HCT-15; HT-29; RXF 393; HOP-62; NCI-H23; U-251; NCI-H460; CCRF-CEM; OVCAR-3; SF-268; OVCAR-5; UO-31; SNB-19; SK-MEL-28; COLO 205; SF-295; OVCAR-8; SN12C; SW-620; SK-MEL-5.
Experiment in all cases: NCI anticancer screen, dose series, 48 h

Take `CC1CN=C(Nc2cccc(C(F)(F)F)c2)S1` (stereo not given): the GI50 is 36.1 µM in the experiment with HCT-15; 78.7 µM (inactive) in the experiment on HT-29; 42.9 µM (inactive) with RXF 393; 95.3 µM (inactive) in the experiment with HOP-62; 36.1 µM (inactive) in the experiment on NCI-H23; 54.7 µM (inactive) with U-251. In addition, the GI50 with NCI-H460 was 52.8 µM (inactive); in the experiment on CCRF-CEM, 31.9 µM (inactive); in the experiment on OVCAR-3, 51.5 µM (inactive); in the experiment with SF-268, 44 µM (inactive); in the experiment with OVCAR-5 it was > 100 µM (inactive); in the experiment on UO-31, 27.5 µM (inactive). The GI50 was 95.5 µM (inactive) in the experiment with SNB-19 and > 100 µM (inactive) in the experiment with SK-MEL-28.

As to `CCOC(=O)[C@H]1Nc2c(cccc2[N+](=O)[O-])[C@H]2OCC[C@@H]12`, the GI50 in the experiment with HCT-15 is above 100 µM; with HT-29, > 100 µM (inactive); with COLO 205, > 100 µM (inactive); with RXF 393 it was > 100 µM (inactive); in the experiment with HOP-62, > 100 µM (inactive); in the experiment on NCI-H23, > 100 µM (inactive). Besides, the GI50 with SF-295, with OVCAR-8, in the experiment with U-251, in the experiment with SN12C, with SW-620 and with NCI-H460 was > 100 µM (inactive) throughout. The GI50 in the experiment with OVCAR-3, with SF-268, in the experiment with OVCAR-5, in the experiment with UO-31, in the experiment on SK-MEL-5 and with SNB-19 was > 100 µM (inactive) in each case. Moreover, in the experiment with SK-MEL-28, the GI50 is > 100 µM (inactive).

Take `S=C(N/N=C(/c1ccccc1)c1ccccn1)Nc1cccc(Cl)c1`: the GI50 with COLO 205 is < 0.0315 µM (active); with RXF 393, 1.08 µM (active); in the experiment on HOP-62, 1.27 µM (inactive); with NCI-H23, 1.04 µM (active); in the experiment with SF-295 it was 0.422 µM (active); in the experiment with OVCAR-8 it was 0.0454 µM (active). Also, the GI50 with U-251 is 0.169 µM (active); in the experiment with SN12C, 0.394 µM (active); with SW-620 it was < 0.0385 µM (active); with NCI-H460, 0.316 µM (active); in the experiment with CCRF-CEM it was < 0.0258 µM (active); in the experiment on SF-268, 0.462 µM (active). The GI50 in the experiment with OVCAR-5 was 0.984 µM (active); with UO-31, 0.566 µM (active); in the experiment on SK-MEL-5, 0.185 µM (active); in the experiment with SNB-19 it was 3.01 µM (inactive); in the experiment with SK-MEL-28, 1.01 µM (active).

Consider `Nc1c(Br)cc2c(c1Br)Cc1cc(Br)ccc1-2`, for which the GI50 with HCT-15 was above 100 µM; in the experiment on HT-29 it was > 100 µM (inactive); in the experiment with COLO 205 it was > 100 µM (inactive); with RXF 393 it was > 100 µM (inactive); with NCI-H23, > 100 µM (inactive); in the experiment with SF-295, > 100 µM (inactive). Besides, the GI50 in the experiment on OVCAR-8, with U-251, in the experiment with SN12C, in the experiment on SW-620, with NCI-H460 and in the experiment with CCRF-CEM was > 100 µM (inactive) in each case. The GI50 in the experiment with OVCAR-3, in the experiment on SF-268, with UO-31, with SK-MEL-5, with SNB-19 and with SK-MEL-28 was > 100 µM (inactive) throughout.

On to `CCN(CC)c1ccc2cc(C(=O)Nc3ccc4[nH]c(C(=O)N5C[C@@H](CCl)c6c5cc(OC(=O)Nc5ccccc5)c5[nH]cc(C)c65)cc4c3)oc2c1` [CARZELESIN], for which the GI50 is 0.000676 µM in the experiment on HCT-15; > 1000 µM (inactive) in the experiment with HT-29; 0.000201 µM (active) in the experiment on RXF 393; 0.000171 µM (active) in the experiment on HOP-62; 0.000311 µM (active) with NCI-H23; 234 µM (inactive) in the experiment with OVCAR-8. For the same compound, the GI50 in the experiment with SN12C was 552 µM (inactive); in the experiment on SW-620, 0.000321 µM (active); in the experiment with NCI-H460 it was 9.08e-05 µM (active); in the experiment with CCRF-CEM, 0.000168 µM (active); in the experiment on OVCAR-3, 245 µM (inactive); in the experiment on SF-268, 0.00021 µM (active). Also, the GI50 in the experiment on OVCAR-5 was 0.000601 µM (active); in the experiment with UO-31, 668 µM (inactive); in the experiment with SK-MEL-5 it was 306 µM (inactive); in the experiment on SNB-19, 294 µM (inactive); in the experiment on SK-MEL-28 it was 0.000479 µM (active).

Take `CCOC(=O)NC(=O)c1cn(CCNCCO)c(=O)[nH]c1=O`: the GI50 with HCT-15 was above 100 µM; in the experiment on HT-29, > 100 µM (inactive); in the experiment on COLO 205, > 100 µM (inactive); in the experiment on HOP-62 it was > 100 µM (inactive); in the experiment with NCI-H23 it was > 100 µM (inactive); in the experiment on SF-295, > 100 µM (inactive). The GI50 in the experiment with OVCAR-8, in the experiment on U-251, in the experiment on SN12C, in the experiment on SW-620, with NCI-H460 and in the experiment on CCRF-CEM was > 100 µM (inactive) in each case. Further, the GI50 in the experiment with OVCAR-3 is > 100 µM (inactive); in the experiment on SF-268 it was > 100 µM (inactive); in the experiment on OVCAR-5, > 100 µM (inactive); with SK-MEL-5 it was > 100 µM (inactive); in the experiment with SNB-19 it was 9.23 µM (inactive).

With `O=C1CC(=O)N(c2ccccc2)N1/C(=C/c1ccccc1)c1ccccc1`, the GI50 with HT-29 was 20 µM (inactive); with COLO 205, 19.8 µM (inactive); with RXF 393, 16.7 µM (inactive); in the experiment on HOP-62 it was 18.5 µM (inactive); in the experiment with NCI-H23 it was 23.2 µM (inactive); in the experiment on SF-295, 17.3 µM (inactive). Besides, the GI50 is 19.8 µM (inactive) in the experiment on OVCAR-8; 14.3 µM (inactive) in the experiment on U-251; 20.5 µM (inactive) in the experiment with SN12C; 17.3 µM (inactive) in the experiment on SW-620; 19.8 µM (inactive) in the experiment with NCI-H460; 0.336 µM (active) in the experiment with CCRF-CEM. The GI50 in the experiment with OVCAR-3 was 20.3 µM (inactive); in the experiment with SF-268, 16.2 µM (inactive); with OVCAR-5 it was 29.2 µM (inactive); in the experiment with UO-31, 15.7 µM (inactive); in the experiment on SK-MEL-5, 14.5 µM (inactive); in the experiment with SNB-19, 19.6 µM (inactive). Also, in the experiment on SK-MEL-28, the GI50 is 12.3 µM (inactive).

As for `COc1nc(-c2cn(S(=O)(=O)c3ccc(C)cc3)c3ccc(Br)cc23)cc(C(F)(F)F)c1C#N`, the GI50 with HCT-15 was 41.4 µM; in the experiment on HT-29, > 100 µM (inactive); in the experiment on COLO 205, > 100 µM (inactive); in the experiment on RXF 393, 19.8 µM (inactive); with NCI-H23 it was 18.8 µM (inactive); in the experiment on SF-295, 97.3 µM (inactive). Also, the GI50 with OVCAR-8 was 25.6 µM (inactive); with U-251, 16.9 µM (inactive); in the experiment with SN12C it was 45.1 µM (inactive); in the experiment on SW-620 it was 66.2 µM (inactive); in the experiment with NCI-H460, > 100 µM (inactive); in the experiment on CCRF-CEM it was 24.8 µM (inactive). The GI50 is 18 µM (inactive) in the experiment with OVCAR-3; 53.2 µM (inactive) with SF-268; 61.5 µM (inactive) with OVCAR-5; 55 µM (inactive) in the experiment on UO-31; 77.6 µM (inactive) with SK-MEL-5; 25.9 µM (inactive) in the experiment on SNB-19. The GI50 in the experiment on SK-MEL-28 is 94.4 µM (inactive).
